Experimental data from ChEMBL document CHEMBL5233248, “Resveratrol - A comprehensive review of recent advances in anticancer drug design and development” (Eur J Med Chem, 2020).
Where “and” joins values, the source holds several entries; their conditions need not be identical. Equal entries are not always repeated. Structures can show the parent of a compound that is named as a salt. Values belong to the compound of their own block, whether it stands above or below them.

Key:
PANC-1 = assay: Anticancer activity against human PANC-1 cells assessed as cell growth inhibition incubated for 48 hrs by SRB assay; assay type: functional; settings: Homo sapiens, PANC-1, 48 h
[1] = Cytotoxicity activity against human CCD-1059Sk cells assessed as cell growth inhibition incubated for 48 hrs by MTS assay; assay type: toxicity, cell-based
in vitro = settings: human, CCD-1059Sk cells and MCF7 cells
Description: Selectivity index, ratio of IC50 for cytotoxicity against CCD-1059Sk cells to IC50 for antiproliferative activity against MCF7 cells

MCF7 [2] = assay: Anticancer activity against human MCF7 cells assessed as cell growth inhibition incubated for 48 hrs by MTS assay; assay type: functional, cell-based; settings: MCF7, 48 h
MCF7 [3] = assay: Anticancer activity against human MCF7 cells assessed as cell growth inhibition incubated for 3 days by MTT assay; assay type: functional, cell-based; settings: MCF7, 72 h
HT-29 [4] = assay: Anticancer activity against human HT-29 cells assessed as cell growth inhibition incubated for 3 days by MTT assay; assay type: functional, cell-based; settings: HT-29, 72 h
HEK293 = assay: Anticancer activity against human HEK293 cells assessed as cell growth inhibition incubated for 3 days by MTT assay; assay type: functional, cell-based; settings: HEK293, 72 h
B16-F10 [5] = assay: Anti cancer activity against mouse B16-F10 cells assessed as cell growth inhibition incubated for 40 hrs by Almar Blue stained fluorescence-based assay relative to control; assay type: functional
B16-F10 [6] = assay: Anti cancer activity against mouse B16-F10 cells assessed as cell growth inhibition incubated for 40 hrs by Almar Blue stained fluorescence-based assay; assay type: functional; settings: B16-F10, 40 h
A549 = assay: Anticancer activity against human A549 cells assessed as cell growth inhibition measured after 72 hrs by MTT assay; assay type: functional, cell-based
HeLa = assay: Anticancer activity against human HeLa cells assessed as cell growth inhibition measured after 72 hrs by MTT assay; assay type: functional, cell-based
[7] = Anticancer activity against Lung adenocarcinoma cell line assessed as cell growth inhibition measured after 72 hrs by MTT assay; assay type: functional, cell-based; settings: Lung adenocarcinoma cell line, 72 h
[8] = Anticancer activity against human AZ-AHR cells assessed as cell growth inhibition incubate for 24 hrs by MTT assay; assay type: functional, cell-based
HCT-116 [9] = assay: Anticancer activity against human HCT-116 cells assessed as cell growth inhibition; assay type: functional, cell-based
MDA-MB-231 = assay: Anticancer activity against human MDA-MB-231 cells assessed as reduction in cell viability measured after 48 hrs at 150 uM by MTT assay relative to control; assay type: functional
HCT-116 [10] = assay: Anticancer activity against human HCT-116 cells assessed as cell growth inhibition incubated for 5 days by SRB assay; assay type: functional, cell-based; settings: HCT-116, 120 h
SK-BR-3 = assay: Anticancer activity against human SK-BR-3 cells assessed as cell growth inhibition incubated for 24 hrs by MTT assay; assay type: functional, cell-based; settings: SK-BR-3, 24 h
HT-29 [11] = assay: Anticancer activity against human HT-29 cells assessed as cell growth inhibition incubated for 24 hrs by MTT assay; assay type: functional, cell-based; settings: ht-29
HepG2 = assay: Anticancer activity against human HepG2 cells assessed as cell growth inhibition incubated for 24 hrs by MTT assay; assay type: functional, cell-based; settings: HepG2, 24 h
[12] = Homo sapiens, HeLa, 72 h, read-out: IC50

SMILES: COc1cc(/C=C/c2ccc(NC(=O)CSc3nnc(-c4cccc(C(F)(F)F)c4)o3)cc2)cc(OC)c1
GI50 (PANC-1): 64 nM

SMILES: COc1ccc(/C=N/NC(=O)/C=C/c2ccc(O)c(OC)c2)cc1
IC50 at 48 h [1]: 158 µM | selectivity ratio (in vitro): 3.9 | IC50 (MCF7 [2]): 19.1 µM

SMILES: O=S(=O)(O)Oc1ccc(/C=C/c2cc(O)cc(OS(=O)(=O)O)c2)cc1
IC50 (MCF7 [3]): 26 µM | IC50 (HT-29 [4]): 56 µM | IC50 (HEK293): > 100 µM

SMILES: COc1ccc(/C=C\c2cc(OC)c(OC)c(OC)c2)cc1
inhibition (INH) (B16-F10 [5]): 80% | IC50 (B16-F10 [6]): 1000 nM

SMILES: OC[C@H]1O[C@@H](Oc2cc(O)cc(/C=C/c3ccc(O)cc3)c2)[C@H](O)[C@@H](O)[C@@H]1O [PICEID]
IC50 (MCF7 [3]): 38 µM | IC50 (HT-29 [4]): 18 µM | IC50 (HEK293): > 100 µM

SMILES: Oc1cc(O)cc(/C=C/c2ccc(OCc3ccccc3)cc2)c1
IC50 (A549; Homo sapiens, A549, 72 h): 26.3 µM | IC50 (HeLa; [12]): 8.25 µM | IC50 [7]: 9.43 µM

SMILES: COc1cc(/C=C/C(=O)N/N=C/c2ccc(O)c(OC)c2)ccc1O
IC50 at 48 h [1]: 74.6 µM | selectivity ratio (in vitro): 1.73 | IC50 (MCF7 [2]): 129 µM

SMILES: Oc1cc(O)cc(/C=C/c2ccc(O)c(O)c2)c1 [PICEATANNOL]
IC50 [8]: 4.5 µM | IC50 (HCT-116 [9]): 5 µM

SMILES: COc1ccc(/C=C/c2cc(OC)c(OC)c(OC)c2)cc1
IC50 (HCT-116 [9]): 1.1 µM

SMILES: COc1cc(/C=C/c2ccc(OC(=O)CSc3nnc(-c4ccc(C(F)(F)F)cc4)o3)cc2)cc(OC)c1
GI50 (PANC-1): 64 nM

SMILES: Oc1cc(O)cc(/C=C\c2ccc(O)c(O)c2)c1
IC50 [8]: 7.8 µM

SMILES: COc1cc(/C=C/c2ccc(NC(=O)CSc3nnc(-c4c(F)cccc4F)o3)cc2)cc(OC)c1
GI50 (PANC-1): 64 nM

SMILES: CC(C)(C)C(=O)Oc1ccc(/C=C/c2cc(O)cc(O)c2)cc1
Activity (MDA-MB-231): 7.7%

SMILES: COc1cc(/C=C\c2ccc(OC)c(OC)c2)cc(OC)c1 [(Z)-3,4,3',5'-TETRAMETHOXYSTILBENE]
inhibition (INH) (B16-F10 [5]): 80% | IC50 (B16-F10 [6]): 1000 nM

SMILES: COc1cccc2c1C(=O)c1c(O)c3c(c(O)c1C2=O)C[C@@](O)(C(=O)CO)C[C@@H]3O[C@H]1C[C@H](N)[C@H](O)[C@H](C)O1 [DOXORUBICIN HYDROCHLORIDE]
IC50 (A549; Homo sapiens, A549, 72 h): 2.36 µM | IC50 (HeLa; [12]): 0.48 µM | IC50 [7]: 1.18 µM

SMILES: CC(=O)Oc1ccc(/C=C/c2cc(OC(C)=O)cc(OC(C)=O)c2)cc1 [TRIACETYLRESVERATROL]
IC50 (A549; a549): 3.4 µM and 9.43 µM | IC50 (HeLa; [12]): 3.4 µM | IC50 (HeLa; time 72 hrs): 20.14 µM | IC50 [7]: 3.4 µM

SMILES: COc1cc(/C=C/c2ccc(NC(=O)CSc3nnc(-c4ccc(C)cc4)o3)cc2)cc(OC)c1
GI50 (PANC-1): 64 nM

SMILES: COc1cc(/C=C/c2ccc(NC(=O)CSc3nnc(-c4ccc(F)cc4)o3)cc2)cc(OC)c1
GI50 (PANC-1): 64 nM

SMILES: Oc1ccccc1/C=N/c1ccccc1O
IC50 (HCT-116 [10]): 600 nM

SMILES: CCCCCCCC(=O)OC[C@H]1O[C@@H](Oc2cc(O)cc(/C=C/c3ccc(O)cc3)c2)[C@H](O)[C@@H](O)[C@@H]1O
IC50 (MCF7 [3]): 52 µM | IC50 (HT-29 [4]): 39 µM | IC50 (HEK293): > 100 µM

SMILES: COc1cc(/C=C/c2ccc(NC(=O)CSc3nnc(-c4cnccn4)o3)cc2)cc(OC)c1
GI50 (PANC-1): 64 nM

SMILES: COc1ccc(/C=C\c2cc(OC)c(OC)c(OC)c2)c(OC)c1
IC50 (B16-F10 [6]): 1000 nM

SMILES: OC[C@H]1O[C@@H](Oc2cc(/C=C/c3ccc(O)cc3)cc(O[C@@H]3O[C@H](CO)[C@@H](O)[C@H](O)[C@H]3O)c2)[C@H](O)[C@@H](O)[C@@H]1O
IC50 (MCF7 [3]): 72 µM | IC50 (HT-29 [4]): 24 µM | IC50 (HEK293): > 100 µM

SMILES: O=S(=O)(Oc1ccc(/C=C/c2cc(O)cc(OS(=O)(=O)c3ccccc3)c2)cc1)c1ccccc1
IC50 (A549; Homo sapiens, A549, 72 h): 4.9 µM | IC50 (HeLa; [12]): 6.48 µM | IC50 [7]: 5.55 µM

SMILES: COc1cc(/C=C/c2ccc(O[C@@H]3O[C@H](CO)[C@@H](O)[C@H](O)[C@H]3O)cc2)cc(O[C@@H]2O[C@H](CO)[C@@H](O)[C@H](O)[C@H]2O)c1
IC50 (MCF7 [3]): 78 µM | IC50 (HT-29 [4]): 45 µM | IC50 (HEK293): > 100 µM

SMILES: COc1cc(/C=C/c2ccc(NC(=O)CSc3nnc(-c4ccccc4F)o3)cc2)cc(OC)c1
GI50 (PANC-1): 64 nM

SMILES: COc1ccc(-c2nnc(SCC(=O)Nc3ccc(/C=C/c4cc(OC)cc(OC)c4)cc3)o2)cc1
GI50 (PANC-1): 64 nM

SMILES: CCCC(=O)Oc1ccc(/C=C/c2cc(O)cc(O)c2)cc1
Activity (MDA-MB-231): 14.14%

SMILES: COC(=O)c1cc(/C=C/c2cc(O)cc(O)c2)ccc1O
IC50 (SK-BR-3): 11.3 µM | IC50 (HT-29 [11]): 44.3 µM and 18.9 µM | IC50 (HepG2): 18.9 µM

SMILES: COc1cc(/C=C/c2ccc(NC(=O)CSc3nnc(-c4ccc(C(F)(F)F)cc4)o3)cc2)cc(OC)c1
GI50 (PANC-1): 64 nM

SMILES: COc1cc(/C=N/NC(=O)/C=C/c2ccc(O)c(OC)c2)cc(OC)c1
IC50 at 48 h [1]: 130 µM | selectivity ratio (in vitro): 6.81 | IC50 (MCF7 [2]): 43 µM

Now from value to compound, other results behind:

GI50 (PANC-1): 64 nM
SMILES: COc1cc(/C=C/c2ccc(OC(=O)CSc3nnc(-c4ccccc4F)o3)cc2)cc(OC)c1

GI50 (PANC-1): 64 nM
SMILES: COc1cc(/C=C/c2ccc(OC(=O)CSc3nnc(-c4cc(OC)c(OC)c(OC)c4)o3)cc2)cc(OC)c1

IC50 (B16-F10 [6]): 1000 nM
SMILES: COc1ccc(/C=C/c2ccc(OC)c(OC)c2)cc1

GI50 (PANC-1): 64 nM
SMILES: COc1cc(/C=C/c2ccc(OC(=O)CSc3nnc(-c4cnccn4)o3)cc2)cc(OC)c1

IC50 (A549; Homo sapiens, A549, 72 h): 5.1 µM | IC50 (HeLa; [12]): 5.1 µM
SMILES: CC(C)C(=O)Oc1ccc(/C=C/c2cc(OC(=O)C(C)C)cc(OC(=O)C(C)C)c2)cc1
IC50 [7]: 5.1 µM

GI50 (PANC-1): 64 nM
SMILES: COc1cc(/C=C/c2ccc(OC(=O)CSc3nnc(-c4ccc(F)cc4)o3)cc2)cc(OC)c1

GI50 (PANC-1): 64 nM
SMILES: COc1cc(/C=C/c2ccc(OC(=O)CSc3nnc(-c4c(F)cccc4F)o3)cc2)cc(OC)c1

GI50 (PANC-1): 64 nM
SMILES: COc1cc(/C=C/c2ccc(OC(=O)CSc3nnc(-c4ccc(C)cc4)o3)cc2)cc(OC)c1

IC50 (A549; Homo sapiens, A549, 72 h): 4.9 µM | IC50 (HeLa; [12]): 4.9 µM
SMILES: CC(C)CC(=O)Oc1ccc(/C=C/c2cc(OC(=O)CC(C)C)cc(OC(=O)CC(C)C)c2)cc1
IC50 [7]: 4.9 µM

IC50 (B16-F10 [6]): 1000 nM
SMILES: COc1ccc(/C=C\c2ccc(OC)c(OC)c2)cc1 [7Z-3,4,4'-TRIMETHOXYSTILBENE]

IC50 (HCT-116 [9]): 25.1 µM
SMILES: Oc1ccc(/C=C\c2cc(O)cc(O)c2)cc1 [CIS-RESVERATROL]
IC50 [8]: 25.1 µM

GI50 (PANC-1): 64 nM
SMILES: COc1cc(/C=C/c2ccc(OC(=O)CSc3nnc(-c4ccncc4)o3)cc2)cc(OC)c1

GI50 (PANC-1): 64 nM
SMILES: COc1ccc(-c2nnc(SCC(=O)Oc3ccc(/C=C/c4cc(OC)cc(OC)c4)cc3)o2)cc1

IC50 (MCF7 [3]): 17 µM | IC50 (HT-29 [4]): 115 µM
SMILES: O=S(=O)(O)Oc1cc(O)cc(/C=C/c2ccc(O)cc2)c1
IC50 (HEK293): > 100 µM
